Assay results published in US20250263370A1 (Tay Therapeutics Limited, priority 2022, published 2025).
Values joined by “and” are separate entries in the source; they are usually repeats but may differ in a detail not shown here. Equal values may be shown once.

Tested on: collagen-induced arthritis
Experiment: Collagen-induced arthritis (CIA) model in rats: body weight, paw volume, clinical scores, clinical observations; on Average detailed clinical score, left hind limb: key of the grades not given here; on Average detailed clinical score, right hind limb: key of the grades not given here; on Detailed Clinical Scores, left forelimb: key of the grades not given here; on Detailed Clinical Scores, left hind limb: key of the grades not given here; on Detailed Clinical Scores, right forelimb: key of the grades not given here; on Detailed Clinical Scores, right hind limb: key of the grades not given here; on Detailed Clinical Scores, score: key of the grades not given here; on Detailed Clinical Scores: left forelimb: key of the grades not given here; on Detailed Clinical Scores: left hind limb: key of the grades not given here; on Detailed Clinical Scores: right forelimb: key of the grades not given here; on Detailed Clinical Scores: right hind limb: key of the grades not given here; on Detailed Clinical Scores: score: key of the grades not given here; on Mean overall clinical score ± SD: key of the grades not given here; on overall clinical score: key of the grades not given here
Settings: for Average detailed clinical score, right hind limb / Average detailed clinical score, score / Mean overall clinical score ± SD / Overall clinical score / Average detailed clinical score, left forelimb / Average detailed clinical score, left hind limb / Average detailed clinical score, right forelimb / Detailed Clinical Scores, left forelimb / Detailed Clinical Scores, left hind limb / Detailed Clinical Scores, right forelimb / Detailed Clinical Scores, right hind limb / Detailed Clinical Scores, score / Detailed Clinical Scores: left forelimb / Detailed Clinical Scores: left hind limb / Detailed Clinical Scores: right forelimb / Detailed Clinical Scores: right hind limb / Detailed Clinical Scores: score: CIA rats; for Overall clinical score: individual animals #1-8; for Mean animal paw volume ± SD: group mean; for Detailed Clinical Scores, left forelimb / Detailed Clinical Scores, left hind limb / Detailed Clinical Scores, right forelimb / Detailed Clinical Scores, right hind limb / Detailed Clinical Scores, score / Detailed Clinical Scores: left forelimb / Detailed Clinical Scores: left hind limb / Detailed Clinical Scores: right forelimb / Detailed Clinical Scores: right hind limb / Detailed Clinical Scores: score: individual animals ID 1-8; for Animal paw volume percent change: individual animals

## CNC(=O)c1[nH]c(C(=O)NC2CCC2)cc1O[C@@H](C)c1ccccc1 (stereo in doubt) [Example 101, N^5-cyclobutyl-N^2-methyl-3-(1-phenylethoxy)-1H-pyrrole-2,5-dicarboxamide]
Day 12, 10 mg/kg
  Average detailed clinical score, right hind limb: 0.25
  Average detailed clinical score, score: 0.50
  Mean overall clinical score ± SD: 1 ± 1
  Overall clinical score: 1 and 0 and 2
Day 12, 30 mg/kg
  Average detailed clinical score, left forelimb: 0.00
  Average detailed clinical score, left hind limb: 0.00
  Average detailed clinical score, right forelimb: 0.00
  Average detailed clinical score, right hind limb: 0.13
  Average detailed clinical score, score: 0.13
  Mean overall clinical score ± SD: 0 ± 0
Day 13, L paw, 3 mg/kg
  Mean animal paw volume ± SD: 1.53 mL
Day 13, L paw, 10 mg/kg
  Mean animal paw volume ± SD: 1.52 mL
Day 13, L paw, 30 mg/kg
  Mean animal paw volume ± SD: 1.35 mL
Day 13, R paw, 3 mg/kg
  Mean animal paw volume ± SD: 1.46 mL
Day 13, R paw, 10 mg/kg
  Mean animal paw volume ± SD: 1.45 mL
Day 13, R paw, 30 mg/kg
  Mean animal paw volume ± SD: 1.37 mL
Day 13, 3 mg/kg
  Detailed Clinical Scores, left forelimb: 0
  Detailed Clinical Scores, left hind limb: 1 (4×) and 0 (3×) and 2
  Detailed Clinical Scores, right forelimb: 0 (6×) and 1 (2×)
  Detailed Clinical Scores, right hind limb: 0 (7×) and 1
  Detailed Clinical Scores, score: 1 (2×) and 2 (2×) and 0 (3×) and 3
  Average detailed clinical score, left forelimb: 0.00
  Average detailed clinical score, left hind limb: 0.75
  Average detailed clinical score, right forelimb: 0.25
  Average detailed clinical score, right hind limb: 0.13
  Average detailed clinical score, score: 1.13
  Mean overall clinical score ± SD: 1 ± 1
  Overall clinical score: 1 (2×) and 2 (2×) and 0 (3×) and 3
Day 13, 10 mg/kg
  Detailed Clinical Scores, left forelimb: 0
  Detailed Clinical Scores, left hind limb: 2 (3×) and 0 (4×) and 1
  Detailed Clinical Scores, right forelimb: 0
  Detailed Clinical Scores, right hind limb: 1 and 0 (6×) and 2
  Detailed Clinical Scores, score: 3 and 0 (4×) and 4 and 2 and 1
  Average detailed clinical score, left forelimb: 0.00
  Average detailed clinical score, left hind limb: 0.88
  Average detailed clinical score, right forelimb: 0.00
  Average detailed clinical score, right hind limb: 0.38
  Average detailed clinical score, score: 1.25
  Mean overall clinical score ± SD: 1 ± 2
  Overall clinical score: 3 and 0 and 4
Day 13, 30 mg/kg
  Detailed Clinical Scores, left forelimb: 0
  Detailed Clinical Scores, left hind limb: 0
  Detailed Clinical Scores, right forelimb: 0
  Detailed Clinical Scores, right hind limb: 1 and 0 (7×)
  Detailed Clinical Scores, score: 1 and 0 (7×)
  Average detailed clinical score, left forelimb: 0.00
  Average detailed clinical score, left hind limb: 0.00
  Average detailed clinical score, right forelimb: 0.00
  Average detailed clinical score, right hind limb: 0.13
  Average detailed clinical score, score: 0.13
  Mean overall clinical score ± SD: 0 ± 0
Day 14, L paw, 3 mg/kg
  Mean animal paw volume ± SD: 1.69 mL
Day 14, L paw, 10 mg/kg
  Mean animal paw volume ± SD: 1.70 mL
Day 14, L paw, 30 mg/kg
  Mean animal paw volume ± SD: 1.35 mL
Day 14, R paw, 3 mg/kg
  Mean animal paw volume ± SD: 1.59 mL
Day 14, R paw, 10 mg/kg
  Mean animal paw volume ± SD: 1.59 mL
Day 14, R paw, 30 mg/kg
  Mean animal paw volume ± SD: 1.37 mL
Day 14, 3 mg/kg
  Detailed Clinical Scores, left forelimb: 0
  Detailed Clinical Scores, left hind limb: 1 (7×) and 3
  Detailed Clinical Scores, right forelimb: 0 (6×) and 1 (2×)
  Detailed Clinical Scores, right hind limb: 1 (2×) and 0 (4×) and 2 and 3
  Detailed Clinical Scores, score: 2 (3×) and 4 and 1 (3×) and 6
  Average detailed clinical score, left forelimb: 0.00
  Average detailed clinical score, left hind limb: 1.25
  Average detailed clinical score, right forelimb: 0.25
  Average detailed clinical score, right hind limb: 0.88
  Average detailed clinical score, score: 2.38
  Mean overall clinical score ± SD: 2 ± 2
  Overall clinical score: 2 (3×) and 4 and 1 (3×) and 6
Day 14, 10 mg/kg
  Detailed Clinical Scores, left forelimb: 0
  Detailed Clinical Scores, left hind limb: 3 (3×) and 4 and 0 (4×)
  Detailed Clinical Scores, right forelimb: 0
  Detailed Clinical Scores, right hind limb: 1 (3×) and 3 and 0 (4×)
  Detailed Clinical Scores, score: 4 (2×) and 6 and 5 and 0 (4×)
  Average detailed clinical score, left forelimb: 0.00
  Average detailed clinical score, left hind limb: 1.63
  Average detailed clinical score, right forelimb: 0.00
  Average detailed clinical score, right hind limb: 0.75
  Average detailed clinical score, score: 2.38
  Mean overall clinical score ± SD: 2 ± 3
  Overall clinical score: 4 (2×) and 6
Day 14, 30 mg/kg
  Detailed Clinical Scores, left forelimb: 0
  Detailed Clinical Scores, left hind limb: 0
  Detailed Clinical Scores, right forelimb: 0
  Detailed Clinical Scores, right hind limb: 1 and 0 (7×)
  Detailed Clinical Scores, score: 1 and 0 (7×)
  Average detailed clinical score, left forelimb: 0.00
  Average detailed clinical score, left hind limb: 0.00
  Average detailed clinical score, right forelimb: 0.00
  Average detailed clinical score, right hind limb: 0.13
  Average detailed clinical score, score: 0.13
  Mean overall clinical score ± SD: 0 ± 0
Day 15, L paw, 3 mg/kg
  Mean animal paw volume ± SD: 1.86 mL
  Animal paw volume percent change: 31.80% and 28.90% and 44.87% and 22.68% and 86.59% and 50.55% and 30.34%
Day 15, L paw, 10 mg/kg
  Mean animal paw volume ± SD: 1.83 mL
  Animal paw volume percent change: 53.43% and 36.90% and 80.93% and 93.39% and 7.66% and 22.69%
Day 15, L paw, 30 mg/kg
  Mean animal paw volume ± SD: 1.45 mL
Day 15, R paw, 3 mg/kg
  Mean animal paw volume ± SD: 1.92 mL
  Animal paw volume percent change: 25.86% and 20.97% and 74.62% and 27.24% and 84.29% and 50.19% and 48.69%
Day 15, R paw, 10 mg/kg
  Mean animal paw volume ± SD: 1.75 mL
  Animal paw volume percent change: 37.01% and 45.42% and 94.98% and 47.10% and 6.18% and 10.73%
Day 15, R paw, 30 mg/kg
  Mean animal paw volume ± SD: 1.48 mL
Day 15, 3 mg/kg
  Detailed Clinical Scores: left forelimb: 0
  Detailed Clinical Scores: left hind limb: 1 (3×) and 2 (3×) and 4 and 3
  Detailed Clinical Scores: right forelimb: 0 (6×) and 1 (2×)
  Detailed Clinical Scores: right hind limb: 1 (3×) and 3 (2×) and 2 (2×) and 4
  Detailed Clinical Scores: score: 2 and 3 (3×) and 6 (2×) and 8 and 4
  Average detailed clinical score, left forelimb: 0.00
Day 15, 10 mg/kg
  Detailed Clinical Scores: left forelimb: 0
  Detailed Clinical Scores: left hind limb: 3 (2×) and 2 and 4 and 0 (2×) and 1 (2×)
  Detailed Clinical Scores: right forelimb: 0
  Detailed Clinical Scores: right hind limb: 2 (3×) and 4 and 0 (2×) and 1 (2×)
  Detailed Clinical Scores: score: 5 and 4 and 7 and 6 and 0 and 1 (2×) and 2
Day 15, 30 mg/kg
  Detailed Clinical Scores: left forelimb: 0
  Detailed Clinical Scores: left hind limb: 0 (6×) and 2 and 1
  Detailed Clinical Scores: right forelimb: 0
  Detailed Clinical Scores: right hind limb: 1 (2×) and 0 (5×) and 2
  Detailed Clinical Scores: score: 1 and 2 (3×) and 0 (4×)
